This passage reports Km results from PMC12603985, “Dissimilar Reactions and Enzymes for Psilocybin Biosynthesis in Inocybe and Psilocybe Mushrooms” (Angewandte Chemie (International Ed. in English), 2025).

Holding throughout (assay type): biochemical, Inocybe corydalina
The test system of one assay is T1, IpsK.
T1 construct: N-terminally hexahistidine-tagged; recombinant, purified
Description: Michaelis-Menten kinetics of phosphotransfer. As to conditions: phosphate donor ATP; product assays in TRIS-HCl pH 7.5.

The test system of another assay is T2, IpsM2.
T2 construct: heterologously produced and purified
Description: Michaelis-Menten kinetics of methyl transfer. The settings on record: methyl donor SAM; product assays in TRIS-HCl pH 7.5.

The subject of the next assay is T3, IpsM1.
T3 construct: heterologously produced and purified
In words: Michaelis-Menten kinetics of methyl transfer. As to conditions: methyl donor SAM; product assays in TRIS-HCl pH 7.5.

The next assay deals with T4, IpsD.
T4 construct: obligate dimer predicted by the model; PLP lysine K300
In words: Michaelis-Menten kinetics of decarboxylation. As to conditions: PLP-dependent.

For the molecule `CN(C)CCc1c[nH]c2cccc(O)c12` [compound 4, psilocin], the Km (commonly the substrate concentration at which the rate is half of its maximum) with IpsK stood at 20.5 µM.
On to `NCCc1c[nH]c2cccc(O)c12` [compound 5, 4-hydroxytryptamine], for which the Km worked out at 64.5 µM in the assay with IpsM2 and 101 µM in the assay on IpsM1.
In the case of `N[C@@H](Cc1c[nH]c2cccc(O)c12)C(=O)O` [compound 7, 4-hydroxy-L-tryptophan], the Km in the assay on IpsD amounted to 66 µM.
Consider `CNCCc1c[nH]c2cccc(O)c12` [compound 10, 10], for which the Km in the assay on IpsM2 was found to be 433 µM; with IpsK, 337 µM; in the assay with IpsM1, 138 µM.
